# Like-named read-outs stand apart in the source and are kept apart here.
# Legend:
# [1] = Ocular distribution of CDO following 28-day topical ocular repeated dose in diabetic rats; format: in vivo; settings: rat, retina, day 29, 0.25 h after single instillation, read-out: CDO μg/g tissue Retina
# Description: 28-day repeated dose study in the diabetic rats was performed to assess CDO levels in retina at the steady state. CDO compositions 2 and 5 of Example 1 were administered by topical ocular instillation (10 μl/eye) TID for 28 days. At day 29 CDO was instilled a single time and retinas were collected 15 minutes post-administration.
# As described in Example 2.
# [2] = system: oxidized glutathione (GSSG); assay: Antioxidant capacity: GSSG in homogenized retinas, streptozotocin diabetic retinopathy model; format: in vivo, SD male rats; settings: diabetic rats, CDO 10 mg/ml topical 10 μl/eye TID 28 days; P<0.01 group II vs. group III
# Description: Diabetes was induced in SD male rats by single intraperitoneal injection of streptozotocin (STZ) at 60 mg/kg body weight in citrate buffer (pH 4.5). Seven days after STZ administration, blood glucose was measured and the level of 250 mg/dl was considered the threshold value to consider diabetes induction. Ophthalmic treatment with CDO at 10 mg/ml (topical instillation of 10 μl/eye) was initiated once hyperglycemia was confirmed and continued for 28 days three times a day (TID). Rats were randomly divided in 3 groups: I. Control (non-diabetic), II. Diabetic rats with no treatment and III. Diabetic rats with CDO at 10 mg/ml.
# At day 29 CDO was instilled a single time at 10 mg/ml in the group III, rats were euthanized and retinas were collected 15 minutes post-administration.
# The antioxidant capacity was evaluated by determining the concentrations of Glutathione disulfide (GSSG) or oxidized glutathione in the homogenized retinas. Tissues were collected at day 29 and homogenized in PBS pH 6-7 containing 1 mM EDTA. After centrifugation at 10000 rpm, an aliquot of the supernatant was diluted in 0.1% formic acid and analyzed by UPLC-MS/MS. […]
# With regard to the mass spectrometric detection, the electrospray ionization source worked to record negative ions. […] The transition monitored for GSSG was m/z 611.2→306.2 with a cone voltage of 45 V and collision energy of 25 eV.
# [3] = system: egg chorioallantoic membrane (CAM); assay: Ocular irritation assay (HET-CAM); set-up: species or system White Leghorn chicken eggs; settings: 100 mg/ml, CAM observed for 5 minutes
# Source text: The HET-CAM is an alternative method to the Draize Rabbit Eye Test which mimics vascular changes in the chorioallantoic membrane, an analog for ocular conjunctiva, which can be used to determine the potential irritancy of a test substance. This method is based on that described in Hen's Egg Test-Chorioallantoic Membrane (HET-CAM) Test Method (ICCVAM-Recommended Test Method Protocol, NIH Publication No. 10-7553—Published 2010)
# Fertilized white SPF (special pathogen free) White Leghorn chicken eggs were incubated at 37° C. and 60% humidity up to day 10. After determination of the viability of the embryo, a rectangular window was removed from the shell directly over the air cell and the egg membrane was carefully moistened with 2-3 ml 0.9% saline. After returning to the incubator for 30 minutes, the inner membrane was removed and the test substance was applied to the CAM membrane with a pipette. Eggs were observed continuously for 5 minutes for the appearance of lysis, hemorrhage and/or coagulation and an irritation score (IS) was determined following the ICCVAM-Recommended Test Method Protocol (NIH Publication No. 10-7553-Published 2010) guideline.
# [4] = Ocular tolerability of CDO in rats, clinical eye evaluation; format: in vivo, Diabetic SD male rats; settings: CDO 100 mg/ml administered topically
# Description: Diabetic SD male rats were treated with CDO compositions 2 and 5 of Example 1 for 28 days three times a day (topical instillation of 10 μl/eye). Clinical evaluation of the eye appearance was performed thorough the study.
structure (smiles),measurement,setting,value
"O=S(=O)(O)c1cc(O)ccc1O [CDO, Calcium dobesilate monohydrate]",concentration at 0.25 h,"[1]; 0.1 mg/eye, topical eye 28 days (3 administrations/day, 10 μl/eye) 10 mg/ml",19.5 µg/g
same,concentration at 0.25 h,"[1]; 1 mg/eye, topical eye 28 days (3 administrations/day, 10 μl/eye) 100 mg/ml",218 µg/g
same,retinal concentrations of GSSG,[2],return concentrations of GSSG at the same level as the control group
same,HET-CAM irritation characterization,[3],not irritating
same,"HET-CAM lysis, haemorrhage or coagulation processes",[3],"did not trigger any lysis, haemorrhage or coagulation processes"
same,tolerance after topical administration,[4],good tolerance
